Measurements published in patent US20060025566A1, “Macrocyclic modulators of the ghrelin receptor” (Tranzyme Pharma Inc., priority 2003, published 2006).
Read-outs that look alike come from different tables or passages of the source.

Assays:
[1] = target: human ghrelin receptor (hGHS-R1a) (Homo sapiens, UniProt Q92847); experiment: Aequorin functional assay (ghrelin receptor), CHO-K1 cells co-expressing Gα16 and aequorin; type: cell-based; conditions: functional (agonist) activity, standard method; TFA salts unless otherwise noted
Description: Coelenterazine (Molecular Probes, Leiden, The Netherlands). […] Compound Handling
(§1) • 1. […] Key Aspects of Method • 1. […] Results

[2] = target: T1, human growth hormone secretagogue receptor (hGHS-R1a) (Homo sapiens, UniProt Q92847); experiment: Competitive radioligand binding assay (ghrelin receptor), [125I]-ghrelin displacement on GHS-R/HEK 293 membranes
T1 construct: purchased PerkinElmer BioSignal #RBHGHSM, lot#1887; host or cells: HEK-293, stably transfected (membranes)
Experimental: The competitive binding assay at the human growth hormone secretagogue receptor (hGHS-R1a) was carried out analogously to assays described in the literature.
Multiscreen Harvest plates-GF/C (Millipore, #MAHFC 1H60) • 4. […] Bottom seal (Millipore, #MATAH0P00) • 7. […] Binding Buffer: 25 mM Hepes (pH 7.4), 1 mM CaCl2, 5 mM MgCl2, 2.5 mM EDTA, 0.4% BSA Assay Volumes
Competition experiments were performed in a 300 μl filtration assay format. • 1. 220 μL of membranes diluted in binding buffer • 2. 40 μL of compound diluted in binding buffer • 3. […] Compound Handling
Compounds were provided frozen on dry ice at a stock concentration of 10 mM diluted in 100% DMSO and stored at −80° C. until the day of testing. On the test day, compounds were allowed to thaw at rt O/N and then diluted in assay buffer according to the desired test concentrations.
Plates were sealed with TopSeal-A, vortexed gently and incubated at rt for 30 min. The reaction was arrested by filtering samples through Multiscreen Harvest plates (pre-soaked in 0.5% polyethyleneimine) using a Tomtec Harvester, washed 9 times with 500 μL of cold 50 mM Tris-HCl (pH 7.4, 4° C.), and then plates were air-dried in a fumehood for 30 min. A bottom seal was applied to the plates prior to the addition of 25 μL of MicroScint-0 to each well. […] Results were expressed as counts per minute (cpm).
Data were analyzed by GraphPad Prism (GraphPad Software, San Diego, Calif.) using a variable slope non-linear regression analysis.
as §1

[3] = [125I]-ghrelin competition, GHS-R/HEK 293 membranes, Table 3A, read-out: Binding Activity at the Human Ghrelin Receptor
[4] = binding activity, standard method, TFA salts unless otherwise noted, read-out: Ki
[5] = binding activity at the human ghrelin receptor, [125I]-ghrelin competition, GHS-R/HEK 293 membranes, read-out: Ki
[6] = binding activity at the human ghrelin receptor, [125I]-ghrelin displacement, read-out: Ki
[7] = second table titled 3C (compounds 435-449), human ghrelin receptor, read-out: Ki

Sequence of human ghrelin receptor (hGHS-R1a) (Q92847 whole entry): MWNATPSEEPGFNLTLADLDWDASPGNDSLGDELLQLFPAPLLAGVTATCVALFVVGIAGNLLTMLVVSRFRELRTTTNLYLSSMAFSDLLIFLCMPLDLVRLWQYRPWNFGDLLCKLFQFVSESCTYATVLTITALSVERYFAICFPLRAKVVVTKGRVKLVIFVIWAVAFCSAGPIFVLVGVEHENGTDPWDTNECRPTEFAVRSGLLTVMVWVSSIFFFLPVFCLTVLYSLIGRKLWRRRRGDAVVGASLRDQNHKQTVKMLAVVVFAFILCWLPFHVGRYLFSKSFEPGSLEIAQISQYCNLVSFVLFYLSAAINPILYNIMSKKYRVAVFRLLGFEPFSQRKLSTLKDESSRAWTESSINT
T1 sequence (Q92847 whole entry): as above

SMILES | Ki [2, 3] | Ki [2, 6] | also measured
CCC(C)C1NCc2ccccc2CCCCNC(=O)C(Cc2ccccc2)NC(=O)C(C)N(C)C1=O (single isomer, unassigned) [194a] | 100 to 1000 nM | – | EC50 [1]: 100 to 1000 nM; Ki [2, 4]: 100 to 1000 nM
CC(C)C[C@@H]1NCCOc2ccccc2C=CCNC(=O)[C@H](Cc2ccccc2)NC(=O)C2(CCCC2)NC1=O (stereo in doubt) [Compound 8] | – | – | EC50 [1]: 1 to 100 nM; Ki [2, 5]: 10 to 100 nM; Ki [2, 4]: 10 to 100 nM
CC(C)C[C@@H]1NCCOc2ccccc2C=CCNC(=O)[C@H](Cc2ccc(Cl)cc2)NC(=O)C2(CCCC2)NC1=O (stereo in doubt) [compound 153] | – | – | EC50 [1]: 1 to 100 nM; Ki [2, 5]: 10 to 100 nM; Ki [2, 4]: 10 to 100 nM
CC(C)C[C@@H]1NCCOc2ccccc2C=CCNC(=O)[C@H](Cc2ccc(F)cc2)NC(=O)C2(CCCC2)NC1=O (stereo in doubt) [compound 154] | – | – | EC50 [1]: 1 to 100 nM; Ki [2, 5]: 10 to 100 nM; Ki [2, 4]: 10 to 100 nM
CC1(C)NC(=O)C2(CCCC2)NCCOc2ccccc2C=CCNC(=O)[C@H](Cc2cccc(Cl)c2)NC1=O (stereo in doubt) [compound 334] | – | – | EC50 [1]: 1 to 100 nM; Ki ([2]; Table 3C (compounds 18, 334-397), human ghrelin receptor, read-out: Ki): 10 to 100 nM; Ki [2, 4]: 10 to 100 nM
CC(C)[C@@H]1NCCOc2ccccc2CCCNC(=O)[C@@H](Cc2ccccc2)NC(=O)CN(C)C1=O [Compound 3] | – | – | EC50 [1]: 100 to 1000 nM; Ki [2, 5]: 100 to 1000 nM; Ki [2, 4]: 100 to 1000 nM
CCC[C@@H]1NCCOc2ccccc2CCCNC(=O)[C@@H](Cc2c[nH]c3ccccc23)NC(=O)CN(C)C1=O [Compound 6] | – | – | EC50 [1]: 1 to 100 nM; Ki [2, 5]: 100 to 1000 nM; Ki [2, 4]: 100 to 1000 nM
CC[C@H](C)[C@@H]1NCCOc2ccccc2CCCNC(=O)[C@@H](Cc2ccccc2)NC(=O)[C@@H](CO)NC1=O [compound 151] | – | – | Ki [2, 5]: > 1000 nM
CCC(C)C1NC(=O)C2(CCCC2)NC(=O)C(CC(C)C)NCCOc2ccccc2C=CCNC1=O (stereo not shown) [compound 166] | > 10000 nM | – | –
CCC(C)C1NC(=O)C2(CCCC2)NC(=O)C(CC(C)C)NCCOc2ccccc2C=CCNC1=O (stereo not shown) [compound 167] | > 10000 nM | – | –
CC[C@H](C)[C@@H]1NCCOc2ccccc2CCCNC(=O)[C@@H](CCc2ccccc2)NC(=O)[C@@H](C)N(C)C1=O [compound 169] | 10 to 100 nM | – | –
CC[C@H](C)[C@@H]1NCCOc2ccccc2CCCNC(=O)[C@@H](Cc2ccncc2)NC(=O)[C@@H](C)N(C)C1=O [compound 171] | 10 to 100 nM | – | –
CCC1NC(=O)C(C)N(C)C(=O)C(C(C)CC)NCCOc2ccccc2CCCNC1=O (stereo not shown) [compound 172] | > 10000 nM | – | –
CCCC1NC(=O)C(C)N(C)C(=O)C(C(C)CC)NCCOc2ccccc2CCCNC1=O (stereo not shown) [compound 173] | 100 to 1000 nM | – | –
CC[C@H](C)[C@@H]1NCCOc2ccccc2CCCNC(=O)[C@@H](C(C)C)NC(=O)[C@@H](C)N(C)C1=O [compound 174] | 100 to 1000 nM | – | –
CC[C@@H](C)[C@H]1NC(=O)[C@@H](C)N(C)C(=O)[C@H]([C@@H](C)CC)NCCOc2ccccc2CCCNC1=O [compound 175] | 100 to 1000 nM | – | –
CC[C@H]1NC(=O)[C@@H](C)N(C)C(=O)[C@H]([C@@H](C)CC)NCCOc2ccccc2CCCNC1=O [compound 205] | > 10000 nM | – | –
CC(C)C1NCCOc2ccccc2CCCNC(=O)C(Cc2ccccc2)NC(=O)C2(CCNCC2)NC1=O (stereo not shown) [compound 207] | > 10000 nM | – | –
CC[C@H](C)[C@@H]1NCCOc2ccccc2CCCNC(=O)[C@@H]([C@@H](C)CC)NC(=O)[C@@H](C)N(C)C1=O [compound 209] | 100 to 1000 nM | – | –
CCC(C)C1NCCOc2ccccc2CCCNC(=O)C(Cc2ccccc2)NC(=O)C(CC)N(C)C1=O (stereo not shown) [compound 212] | 100 to 1000 nM | – | –
CCC(C)C1NCCOc2ccccc2CCCNC(=O)C(Cc2ccccc2)NC(=O)C2CSCN2C1=O (stereo not shown) [compound 213] | > 1000 nM | – | –
CCC(C)C1NCCOc2ccccc2CCCNC(=O)C(Cc2ccccc2)NC(=O)C(COC(C)(C)C)NC1=O (stereo not shown) [compound 215] | 1000 to 10000 nM | – | –
CC(C)[C@@H]1NCCOc2ccccc2CCCNC(=O)[C@H](Cc2ccccc2)NC(=O)C2(CC2)NC1=O [compound 216] | 1000 to 10000 nM | – | –
CC[C@H](C)[C@@H]1NCCOc2ccccc2CCCNC(=O)[C@@H](Cc2c[nH]cn2)NC(=O)[C@@H](C)N(C)C1=O [compound 305] | – | 100 to 1000 nM | –

SMILES | Ki [2, 3] | Ki [2, 6] | also measured
C[C@@H]1C(=O)N[C@H](Cc2ccc(F)cc2)C(=O)NCCCc2ccccc2OCCN[C@@H](C2CC2)C(=O)N1C [compound 309] | – | 0.1 to 10 nM | –
C[C@@H]1C(=O)N[C@H](Cc2ccccc2F)C(=O)NCCCc2ccccc2OCCN[C@@H](C2CC2)C(=O)N1C [compound 312] | – | 0.1 to 10 nM | –
CC1C(=O)NC(Cc2ccc(Cl)c(Cl)c2)C(=O)NCCCc2ccccc2OCCNC(C2CC2)C(=O)N1C (stereo not shown) [compound 315] | – | 0.1 to 10 nM | –
C[C@@H]1C(=O)N[C@H](Cc2ccc(F)c(F)c2)C(=O)NCCCc2ccccc2OCCN[C@@H](C2CC2)C(=O)N1C [compound 316] | – | 10 to 100 nM | –
C[C@@H]1C(=O)N[C@H](Cc2cc(F)cc(F)c2)C(=O)NCCCc2ccccc2OCCN[C@@H](C2CC2)C(=O)N1C [compound 317] | – | 10 to 100 nM | –
C[C@@H]1C(=O)N[C@H](Cc2ccc(Br)cc2)C(=O)NCCCc2ccccc2OCCN[C@@H](C2CC2)C(=O)N1C [compound 319] | – | 0.1 to 10 nM | –
C[C@@H]1C(=O)N[C@H](Cc2ccc(I)cc2)C(=O)NCCCc2ccccc2OCCN[C@@H](C2CC2)C(=O)N1C [compound 320] | – | 0.1 to 10 nM | –
C[C@@H]1C(=O)N[C@H](Cc2ccc(C#N)cc2)C(=O)NCCCc2ccccc2OCCN[C@@H](C2CC2)C(=O)N1C [compound 321] | – | 10 to 100 nM | –
CCC(C)C1NCCOc2ccccc2C=CCNC(=O)C(Cc2cccc(F)c2)NC(=O)C2(CCCC2)NC1=O (stereo not shown) [compound 325] | – | 10 to 100 nM | –
CCC(C)C1NCCOc2ccccc2C=CCNC(=O)C(Cc2cccc(OC)c2)NC(=O)C2(CCCC2)NC1=O (stereo not shown) [compound 328] | – | 10 to 100 nM | –
COC[C@@H]1NCCOc2ccccc2CCCNC(=O)[C@@H](Cc2ccc(F)cc2)NC(=O)[C@@H](C)N(C)C1=O [compound 336] | – | 100 to 1000 nM | –
C[C@@H]1C(=O)N[C@H](Cc2ccc(F)cc2)C(=O)NCCCc2ccccc2OCCN[C@@H](CN)C(=O)N1C [compound 337] | – | 100 to 1000 nM | –
C[C@@H]1C(=O)N[C@H](Cc2ccc(F)cc2)C(=O)NCCCc2ccccc2OCCN[C@@H](CCN)C(=O)N1C [compound 338] | – | 100 to 1000 nM | –
C[C@@H]1C(=O)N[C@H](Cc2ccc(F)cc2)C(=O)NCCCc2ccccc2OCCN[C@@H](CCCN)C(=O)N1C [compound 339] | – | 100 to 1000 nM | –
CSCC[C@@H]1NCCOc2ccccc2CCCNC(=O)[C@@H](Cc2ccc(F)cc2)NC(=O)[C@@H](C)N(C)C1=O [compound 340] | – | 10 to 100 nM | –
COc1ccccc1C[C@@H]1NCCOc2ccccc2/C=C/CNC(=O)[C@H](Cc2cccc(Cl)c2)NC(=O)C2(CCCC2)NC1=O [compound 343] | – | 100 to 1000 nM | –
CCC(C)C1NCCOc2ccccc2C=CCNC(=O)C(COCc2ccccc2)NC(=O)C2(CCCC2)NC1=O (stereo not shown) [compound 347] | – | 100 to 1000 nM | –
C[C@@H]1C(=O)N[C@H](Cc2cc(F)c(F)c(F)c2)C(=O)NCCCc2ccccc2OCCN[C@@H](C2CC2)C(=O)N1C [compound 391] | – | 0.1 to 10 nM | –
CC1C(=O)NC(Cc2ccc(F)cc2)C(=O)NCC=Cc2ccccc2OCCNC(C2CC2)C(=O)N1C (stereo not shown) [compound 401] | – | 0.1 to 10 nM | –
O=C1NC/C=C/c2ccccc2OCCNC2(CCCC2)C(=O)NC2(CCCC2)C(=O)N[C@H]1Cc1cccc(Cl)c1 [compound 437] | – | – | Ki [2, 7]: 0.1 to 10 nM
CCC(C)C1NCCOc2ccccc2C=CCNC(=O)C(Cc2ccc(C(=O)O)cc2)NC(=O)C2(CCCC2)NC1=O (stereo not shown) [compound 441] | – | – | Ki [2, 7]: 1000 to 10000 nM
CCC(C)C1NCCOc2ncccc2CCCNC(=O)C(Cc2cccc(Cl)c2)NC(=O)C2(CCCC2)NC1=O (stereo not shown) [compound 449] | – | – | Ki [2, 7]: 1000 to 10000 nM
C[C@@H]1C(=O)N[C@H](Cc2ccccc2)C(=O)NCCCc2ccccc2OCCN2CCCC[C@H]2C(=O)N1C [drawing 1187] | – | – | Ki ([2]; Table 3E, human ghrelin receptor, read-out: Ki): 10 to 100 nM
